This is an account of results in US20110009420A1, “Histamine H3 Receptor Ligands” (HIGH POINT PHARMACEUTICALS, LLC, priority 2008, published 2011).

Data set [1] has as its target T1, human histamine H3 receptor (Homo sapiens, UniProt Q9Y5N1).
T1 construct: expressed in transfected cells
Description: functional [35S]GTPγS binding assay (antagonist potency, inhibition of RAMHA-stimulated binding). It is filed as biochemical. The conditions noted are these: for [35S]GTPγS binding Ki(nM): functional Ki from full dose-response IC50 by Cheng-Prusoff, 10 nM RAMHA, re-synthesized compounds. Here is the method:
CHO-cells, stably expressing the human histamine H3 receptor, were harvested and membranes were prepared by threefold homogenization in a HEPES buffer (20 mM HEPES, 0.1-10 mM EDTA; pH 7.4). […] The hits were subsequently tested in full dose-response curves for functional IC50 determinations. After 2 h incubation at RT with gentle shaking of the plate, the plate was centrifuged at 370 RCF for 10 min and subsequently the radioactivity was counted in a Packard TopCount-NXT.
The IC50 values were calculated by non-linear regression analysis using GraphPad Prism.
In general terms: Binding of GTPγS marks nucleotide exchange on a G protein.

Setting [2] is: read-out: [35S]GTPγS binding Ki.

Structures can show the parent of a compound that is named as a salt. Where two headings read alike, the source gives them in different places.

T1 sequence (Q9Y5N1 whole entry): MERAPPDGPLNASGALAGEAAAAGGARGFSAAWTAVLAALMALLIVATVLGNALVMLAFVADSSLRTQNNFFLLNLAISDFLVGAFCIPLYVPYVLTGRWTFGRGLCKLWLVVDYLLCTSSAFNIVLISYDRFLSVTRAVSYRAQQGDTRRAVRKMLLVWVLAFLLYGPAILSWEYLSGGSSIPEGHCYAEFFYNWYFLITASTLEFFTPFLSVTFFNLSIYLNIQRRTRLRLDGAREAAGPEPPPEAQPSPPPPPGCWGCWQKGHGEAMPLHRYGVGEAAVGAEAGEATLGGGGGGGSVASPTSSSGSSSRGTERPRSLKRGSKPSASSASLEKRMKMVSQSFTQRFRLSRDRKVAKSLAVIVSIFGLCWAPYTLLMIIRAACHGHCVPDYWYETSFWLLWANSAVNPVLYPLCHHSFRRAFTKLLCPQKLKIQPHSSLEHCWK

For `O=C(c1cc2ccccc2s1)N1CCN(CCCN2CCCCC2)CC1` (as salt: hydrochloride) (hydrate or solvate) [Compound A11B12], the melting point was 265 to 267 °C.

Turning to `O=C(c1cc2ccccc2o1)N1CCN(CCCN2CCCCC2)CC1` (as salt: hydrochloride) (hydrate or solvate) [Compound A12B12, Benzofuran-2-yl-(4-(3-(piperidin-1-yl)propyl)piperazin-1-yl)methanone, dihydrochloride], the melting point lay within 253 to 255 °C.

`COc1ccc2oc(C(=O)N3CCN(CCCN4CCCCC4)CC3)cc2c1` (as salt: hydrochloride) (hydrate or solvate) [Compound A13B12] displayed a melting point of 255 to 257 °C.

As for `O=C(Cc1ccc(-c2ccccc2)cc1)N1CCN(CCCN2CCCCC2)CC1` (as salt: hydrochloride) (hydrate or solvate) [Compound A15B12], the melting point lay in the range of 274 to 276 °C. Still for that read-out and setting: under `O=C(CC1c2ccccc2-c2ccccc21)N1CCN(CCCN2CCCCC2)CC1` (as salt: hydrochloride) (hydrate or solvate) [Compound A18B12, 2-(9H-Fluoren-9-yl)-1-(4-(3-(piperidin-1-yl)propyl)piperazin-1-yl)ethanone, dihydrochloride] stands 263 to 265 °C. Still for that read-out and setting: under `O=C(Cc1c[nH]c2ccccc12)N1CCN(CCCN2CCCCC2)CC1` (as salt: hydrochloride) [Compound A14B12] stands 256 to 258 °C. The same measure, in the same setting: under `O=C(c1cccc(Oc2ccccc2)c1)N1CCN(CCCN2CCCCC2)CC1` (as salt: hydrochloride) [Compound A21B12] stands 274 to 276 °C.

Regarding `O=C(c1cc2ccccc2s1)N1CCN(CCCN2CCCCC2)CC1` [Compound A11B12], the inhibition at 3.5 µM in data set [1] was 57%. Moreover, the Ki in data set [1] (setting [2]) was 35 nM. For `O=C(c1cc2ccccc2o1)N1CCN(CCCN2CCCCC2)CC1` [Compound A12B12, Benzofuran-2-yl-(4-(3-(piperidin-1-yl)propyl)piperazin-1-yl)methanone, dihydrochloride], in that order: 70% and 19 nM. For `COc1ccc2oc(C(=O)N3CCN(CCCN4CCCCC4)CC3)cc2c1` [Compound A13B12], in that order: 60% and 16 nM. Consider `O=C(Cc1c[nH]c2ccccc12)N1CCN(CCCN2CCCCC2)CC1` [Compound A14B12], for which, in data set [1], the affinity, expressed as Ki, was 10 nM; the inhibition at 3.5 µM was 73%; the “[35S]GTPγS binding Ki(nM)” value is recorded as “low nanomolar range”. For `O=C(Cc1ccc(-c2ccccc2)cc1)N1CCN(CCCN2CCCCC2)CC1` [Compound A15B12], in data set [1], the Ki was determined as 51 nM and testing at 3.5 µM gave an inhibition of 56%. For the molecule `O=C(CC1c2ccccc2-c2ccccc21)N1CCN(CCCN2CCCCC2)CC1` [Compound A18B12, 2-(9H-Fluoren-9-yl)-1-(4-(3-(piperidin-1-yl)propyl)piperazin-1-yl)ethanone, dihydrochloride], in data set [1], the inhibition at 3.5 µM was 74% and the “[35S]GTPγS binding Ki(nM)” value is “low nanomolar range”. For the same molecule, the Ki in data set [1] (setting [2]) was 7.4 nM. `O=C(c1cccc(Oc2ccccc2)c1)N1CCN(CCCN2CCCCC2)CC1` [Compound A21B12] registered an inhibition at 3.5 µM in data set [1] of 62%. In addition, the Ki in data set [1] (setting [2]) was 23 nM.

One may read the melting point as the temperature, or range, at which the solid turns liquid. For orientation: inhibition means how much of the control response was suppressed. A word on the Ki: it is a measure of affinity in units of concentration, obtained from inhibition or displacement.
